pIC50: −log10 of the molar value.
System: 171881-019-R-J1-PDC multicell spheroid viability
Assay: Anticancer human tumor 171881-019-R-J1-PDC patient-derived invasive breast carcinoma cell line growth inhibition [IpAb]
Details: for pIC50: curve of first compound; for viability, T/C: stronger effect = lower value
Method in brief: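 Combinations with ipatasertib or abemaciclib were tested on tumour spheroids holding HUVEC (25%) and MSC (15%) alongside 60% malignant cells. Top concentration was at or near clinical Cmax (10 microM if undefined), descending in half-log steps.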
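Further: spheroids exposed to the agents for seven days before readout.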

## CC(C)(C)c1cnc(CSc2cnc(NC(=O)C3CCNCC3)s2)o1 + CC(C)NCC(C(=O)N1CCN(c2ncnc3c2C(C)CC3O)CC1)c1ccc(Cl)cc1
Second compound 0.1 µM
  pIC50: 6.73
Second compound 0.316 µM
  pIC50: 6.81
Second compound 1 µM
  pIC50: > 8.02
Second compound 3.16 µM
  pIC50: > 8.02
Second compound 10 µM
  pIC50: > 8.02
Second compound 0.1 µM, first compound 0.00949 µM
  viability, T/C: 104%
Second compound 0.1 µM, first compound 0.03 µM
  viability, T/C: 120%
Second compound 0.1 µM, first compound 0.0949 µM
  viability, T/C: 133%
Second compound 0.1 µM, first compound 0.3 µM
  viability, T/C: 2.16%
Second compound 0.1 µM, first compound 0.949 µM
  viability, T/C: 0.19%
Second compound 0.1 µM, first compound 3 µM
  viability, T/C: 0.6%
Second compound 0.316 µM, first compound 0.00949 µM
  viability, T/C: 82.3%
Second compound 0.316 µM, first compound 0.03 µM
  viability, T/C: 91%
Second compound 0.316 µM, first compound 0.0949 µM
  viability, T/C: 89.2%
Second compound 0.316 µM, first compound 0.3 µM
  viability, T/C: 0.99%
Second compound 0.316 µM, first compound 0.949 µM
  viability, T/C: 0.25%
Second compound 0.316 µM, first compound 3 µM
  viability, T/C: 0.63%
Second compound 1 µM, first compound 0.00949 µM
  viability, T/C: 24.9%
Second compound 1 µM, first compound 0.03 µM
  viability, T/C: 34.3%
Second compound 1 µM, first compound 0.0949 µM
  viability, T/C: 38.6%
Second compound 1 µM, first compound 0.3 µM
  viability, T/C: 0.53%
Second compound 1 µM, first compound 0.949 µM
  viability, T/C: 0.49%
Second compound 1 µM, first compound 3 µM
  viability, T/C: 0.25%
Second compound 3.16 µM, first compound 0.00949 µM
  viability, T/C: 11.1%
Second compound 3.16 µM, first compound 0.03 µM
  viability, T/C: 13.2%
Second compound 3.16 µM, first compound 0.0949 µM
  viability, T/C: 19.1%
Second compound 3.16 µM, first compound 0.3 µM
  viability, T/C: 0.68%
Second compound 3.16 µM, first compound 0.949 µM
  viability, T/C: 0.24%
Second compound 3.16 µM, first compound 3 µM
  viability, T/C: 0.28%
Second compound 10 µM, first compound 0.00949 µM
  viability, T/C: 5.77%
Second compound 10 µM, first compound 0.03 µM
  viability, T/C: 6.05%
Second compound 10 µM, first compound 0.0949 µM
  viability, T/C: 9.31%
Second compound 10 µM, first compound 0.3 µM
  viability, T/C: 0.64%
Second compound 10 µM, first compound 0.949 µM
  viability, T/C: 0.26%
Second compound 10 µM, first compound 3 µM
  viability, T/C: 0.31%

## Cn1nccc1Nc1nccc(-c2ccn(C(CO)c3ccc(Cl)c(F)c3)c(=O)c2)n1 (stereo not given) + CC(C)NCC(C(=O)N1CCN(c2ncnc3c2C(C)CC3O)CC1)c1ccc(Cl)cc1
Second compound 0.1 µM
  pIC50: 6.77
Second compound 0.316 µM
  pIC50: 7.19
Second compound 1 µM
  pIC50: > 7.50
Second compound 3.16 µM
  pIC50: > 7.50
Second compound 10 µM
  pIC50: > 7.50
Second compound 0.1 µM, first compound 0.0316 µM
  viability, T/C: 111%
Second compound 0.1 µM, first compound 0.1 µM
  viability, T/C: 65.8%
Second compound 0.1 µM, first compound 0.316 µM
  viability, T/C: 32.5%
Second compound 0.1 µM, first compound 1 µM
  viability, T/C: 10.4%
Second compound 0.1 µM, first compound 3.16 µM
  viability, T/C: 7.79%
Second compound 0.1 µM, first compound 10 µM
  viability, T/C: 7.95%
Second compound 0.316 µM, first compound 0.0316 µM
  viability, T/C: 69.1%
Second compound 0.316 µM, first compound 0.1 µM
  viability, T/C: 38.5%
Second compound 0.316 µM, first compound 0.316 µM
  viability, T/C: 9.02%
Second compound 0.316 µM, first compound 1 µM
  viability, T/C: 4.73%
Second compound 0.316 µM, first compound 3.16 µM
  viability, T/C: 3.47%
Second compound 0.316 µM, first compound 10 µM
  viability, T/C: 3.81%
Second compound 1 µM, first compound 0.0316 µM
  viability, T/C: 17.9%
Second compound 1 µM, first compound 0.1 µM
  viability, T/C: 10.3%
Second compound 1 µM, first compound 0.316 µM
  viability, T/C: 3.68%
Second compound 1 µM, first compound 1 µM
  viability, T/C: 2.46%
Second compound 1 µM, first compound 3.16 µM
  viability, T/C: 2.13%
Second compound 1 µM, first compound 10 µM
  viability, T/C: 1.27%
Second compound 3.16 µM, first compound 0.0316 µM
  viability, T/C: 6.73%
Second compound 3.16 µM, first compound 0.1 µM
  viability, T/C: 3.37%
Second compound 3.16 µM, first compound 0.316 µM
  viability, T/C: 2.44%
Second compound 3.16 µM, first compound 1 µM
  viability, T/C: 1.77%
Second compound 3.16 µM, first compound 3.16 µM
  viability, T/C: 0.69%
Second compound 3.16 µM, first compound 10 µM
  viability, T/C: 0.94%
Second compound 10 µM, first compound 0.0316 µM
  viability, T/C: 3.16%
Second compound 10 µM, first compound 0.1 µM
  viability, T/C: 2.33%
Second compound 10 µM, first compound 0.316 µM
  viability, T/C: 1.55%
Second compound 10 µM, first compound 1 µM
  viability, T/C: 1.06%
Second compound 10 µM, first compound 3.16 µM
  viability, T/C: 0.84%
Second compound 10 µM, first compound 10 µM
  viability, T/C: 0.32%

Reference: PubChem BioAssay AID2060342 (Molecular Pharmacology Branch, DTP, NCI, 2025)
